This is an account of results in patent US12006330B2, “Substituted macrocyclic compounds and related methods of treatment” (Alkermes, Inc., priority 2020, dated 2024).

pEC50: −log10 of the molar value.

The experiment concerns the target T1, human orexin-2 receptor (OX2R) (Homo sapiens, UniProt O43614).
T1 construct: expressed in transfected cells
T1 sequence (O43614 1-444): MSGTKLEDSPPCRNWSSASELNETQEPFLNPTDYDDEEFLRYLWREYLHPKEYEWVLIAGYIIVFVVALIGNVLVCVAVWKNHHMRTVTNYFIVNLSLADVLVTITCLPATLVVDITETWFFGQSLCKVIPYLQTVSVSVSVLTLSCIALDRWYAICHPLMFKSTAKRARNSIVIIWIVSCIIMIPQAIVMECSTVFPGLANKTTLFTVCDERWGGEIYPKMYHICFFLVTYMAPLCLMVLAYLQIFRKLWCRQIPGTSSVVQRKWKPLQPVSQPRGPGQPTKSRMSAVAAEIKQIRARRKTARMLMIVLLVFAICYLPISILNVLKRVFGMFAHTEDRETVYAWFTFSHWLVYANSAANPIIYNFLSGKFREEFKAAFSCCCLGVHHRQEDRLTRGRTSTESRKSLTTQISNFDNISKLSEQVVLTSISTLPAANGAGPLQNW
Kind of experiment: Human OX2R IP1 assay. The class given is cell-based. The conditions noted are these: T-Rex CHO cells stably overexpressing human OX2R; IP1 accumulation; 1 hr at 37 degrees C; mean EC50. On the procedure: T-Rex CHO cells stably overexpressing the human orexin-2 receptor (OX2R) were induced overnight with 1 μg/mL of doxycycline in a T225 flask. 24 hours post induction, cells were lifted with accutase and plated into a 384-well proxy plate at 30,000 cells/well. Cells were then treated with different test compounds in 1× stimulation buffer containing 10 mM Hepes, 1 mM CaCl2), 0.5 mM MgCl2, 4.2 mM KCl, 146 mM NaCl, 5.5 mM glucose, and 50 mM LiCl, pH 7.4, for 1 hr at 37 degrees C. Following incubation, the reaction was terminated by the addition of detection mix, which is composed of IP1-d2 and anti-IP1-cryptate diluted in lysis buffer as well as 1× stimulation buffer. The plates were allowed to incubate for 1 hour at room temperature and were then read in the EnVision® multimode plate reader, measuring inositol phosphate levels.
Cisbio IP1 is a cell-based functional assay quantifying the accumulation of inositol monophosphate (IP), a metabolite released as a result of orexin 2 receptor activation through the phospholipase C-Gq signaling pathway. This is a competitive immunoassay in which the IP1 produced by the cells upon receptor activation competes with the IP1 analog coupled to the d2 fluorophore (acceptor) for binding to an anti-IP1 monoclonal antibody labeled with Eu cryptate (donor). The measured HTRF-FRET based signal is inversely proportional to the IP1 concentration produced.
The EC50 values reported in Table 2 were obtained according to the human OX2R IP1 assay described above. Data are the mean EC50 values S.E.M. Reference Compound A is methyl (2R,3S)-3-((methylsulfonyl)amino)-2-(((cis-4-phenylcyclohexyl)oxy)methyl)-piperidine-1-carboxylate (Example 5 of PCT publication No. WO2017/135306). Reference Compound B is N-((2S,3S)-1-(2-hydroxy-2-methylpropanoyl)-2-((2,3′,5′-trifluorobiphenyl-3-yl)methyl)pyrrolidin-3-yl)methanesulfonamide (Example 483 of PCT publication No. WO2019/027058).
`Cc1ccc2c(c1)[C@H]1CC[C@H](CC1)OC[C@H]1[C@@H](NS(C)(=O)=O)CCCN1CCO2` (stereo in doubt) [Compound 54] had a negative logarithm of the EC50 (pEC50) of 6.00 to 8.00.
`O=S(=O)(CC1CCC1)N[C@H]1CCCN2CCOc3ccccc3[C@H]3CC[C@H](CC3)OC[C@@H]12` (stereo in doubt) [Compound 55] had a pEC50 of less than 6.00.
With `CC(C)(C)S(=O)(=O)N[C@H]1CCCN2CCOc3ccccc3[C@H]3CC[C@H](CC3)OC[C@@H]12` (stereo in doubt) [Compound 56] the figure was less than 6.00; with `O=S(=O)(N[C@H]1CCCN2CCOc3ccccc3[C@H]3CC[C@H](CC3)OC[C@@H]12)C1CCC1` (stereo in doubt) [Compound 57], 6.00 to 8.00.
With `CC1(S(=O)(=O)N[C@H]2CCCN3CCOc4ccccc4[C@H]4CC[C@H](CC4)OC[C@@H]23)CC1` (stereo in doubt) [Compound 58], the pEC50 was 6.00 to 8.00.
Compound `O=S(=O)(CC1CC1)N[C@H]1CCCN2CCOc3ccccc3[C@H]3CC[C@H](CC3)OC[C@@H]12` (stereo in doubt) [Compound 59] had a negative-log EC50 (pEC50) of 6.00 to 8.00.
Regarding `Cc1ccnc2c1[C@H]1CC[C@H](CC1)OC[C@H]1[C@@H](NS(=O)(=O)C3CC3)CCCN1C(=O)CO2` (stereo in doubt) [Compound 62], the negative-log EC50 (pEC50) was more than 8.00.
With `O=S(=O)(N[C@H]1CCCN2CCOc3ncccc3[C@H]3CC[C@H](CC3)OC[C@@H]12)C1CC1` (stereo in doubt) [Compound 63] the figure was less than 6.00; with `CC(C)S(=O)(=O)N[C@H]1CCCN2CCOc3ncccc3[C@H]3CC[C@H](CC3)OC[C@@H]12` (stereo in doubt) [Compound 64], less than 6.00.
With `O=C1COc2nccnc2[C@H]2CC[C@H](CC2)OC[C@H]2[C@@H](NS(=O)(=O)C3CC3)CCCN12` (stereo in doubt) [Compound 65] the figure was more than 8.00.
Consider `CC(C)S(=O)(=O)N[C@H]1CCCN2C(=O)COc3nccnc3[C@H]3CC[C@H](CC3)OC[C@@H]12` (stereo in doubt) [Compound 66], for which the pEC50 was more than 8.00.
In the case of `O=C1COc2nnccc2[C@H]2CC[C@H](CC2)OC[C@H]2[C@@H](NS(=O)(=O)C3CC3)CCCN12` (stereo in doubt) [Compound 67], the pEC50 is 6.00 to 8.00.
To `Cc1ncnc2c1[C@H]1CC[C@H](CC1)OC[C@H]1[C@@H](NS(=O)(=O)C3CC3)CCCN1C(=O)CO2` (stereo in doubt) [Compound 68] belongs more than 8.00.
To `Cc1ncnc2c1[C@H]1CC[C@H](CC1)OC[C@H]1[C@@H](NS(=O)(=O)C(C)C)CCCN1C(=O)CO2` (stereo in doubt) [Compound 69] belongs more than 8.00; to `Cc1cccc2c1[C@H]1CC[C@H](CC1)OC[C@H]1[C@@H](NS(=O)(=O)C3CC3)CCN1C(=O)CO2` (stereo in doubt) [Compound 70], more than 8.00; to `O=C1COc2cccc(F)c2[C@H]2CC[C@H](CC2)OC[C@H]2[C@@H](NS(=O)(=O)C3CC3)CCCN12` (stereo in doubt) [Compound 74], more than 8.00.
In turn, `Cc1c(Cl)ccc2c1[C@H]1CC[C@H](CC1)OC[C@H]1[C@@H](NS(=O)(=O)C3CC3)CCCN1C(=O)CO2` (stereo in doubt) [Compound 75] showed a pEC50 of more than 8.00.
With `Cc1ccc2c(c1C)[C@H]1CC[C@H](CC1)OC[C@H]1[C@@H](NS(=O)(=O)C(C)C)CCCN1C(=O)CO2` (stereo in doubt) [Compound 76] the figure was more than 8.00.
With `Cc1ccc2c(c1C)[C@H]1CC[C@H](CC1)OC[C@H]1[C@@H](NS(=O)(=O)C3CC3)CCCN1C(=O)CO2` (stereo in doubt) [Compound 77] the figure was more than 8.00.
To `Cc1ccc2c(c1C)[C@H]1CC[C@H](CC1)OC[C@H]1[C@@H](NS(C)(=O)=O)CCCN1C(=O)CO2` (stereo in doubt) [Compound 78] belongs more than 8.00; to `Cc1cccc2c1[C@H]1CC[C@H](CC1)OC[C@H]1[C@@H](NS(=O)(=O)C(C)C)CCN1C(=O)CO2` (stereo in doubt) [Compound 79], more than 8.00.
The compound `O=C1COc2ccccc2[C@H]2CC[C@H](CC2)OC[C@H]2[C@@H](NS(=O)(=O)C3COC3)CCCN12` (stereo in doubt) [Compound 80] had a pEC50 of more than 8.00.
As for `Cc1ncnc2c1[C@H]1CC[C@H](CC1)OC[C@H]1[C@@H](NS(C)(=O)=O)CCN1C(=O)CO2` (stereo in doubt) [Compound 82], the pEC50 is 6.00 to 8.00.
To `Cc1ncnc2c1[C@H]1CC[C@H](CC1)OC[C@H]1[C@@H](NS(=O)(=O)C3CC3)CCN1C(=O)CO2` (stereo in doubt) [Compound 83] belongs 6.00 to 8.00; to `Cc1ncnc2c1[C@H]1CC[C@H](CC1)OC[C@H]1[C@@H](NS(=O)(=O)C(C)C)CCN1C(=O)CO2` (stereo in doubt) [Compound 86], 6.00 to 8.00; to `Cc1ccnc2c1[C@H]1CC[C@H](CC1)OC[C@H]1[C@@H](NS(=O)(=O)C3COC3)CCCN1C(=O)CO2` (stereo in doubt) [Compound 88], more than 8.00.
With `Cc1ccnc2c1[C@H]1CC[C@H](CC1)OC[C@H]1[C@@H](NS(=O)(=O)C3CC3)CCN1C(=O)CO2` (stereo in doubt) [Compound 92] the figure was more than 8.00.
With `Cc1ccnc2c1[C@H]1CC[C@H](CC1)OC[C@H]1[C@@H](NS(=O)(=O)C(C)C)CCN1C(=O)CO2` (stereo in doubt) [Compound 93] the figure was more than 8.00.
Turning to `CS(=O)(=O)N[C@H]1CCCN2C(=O)COc3ccc(O)cc3[C@H]3CC[C@H](CC3)OC[C@@H]12` (stereo in doubt) [Compound 96], the pEC50 is more than 8.00.
The compound `O=C1COc2ncncc2[C@H]2CC[C@H](CC2)OC[C@H]2[C@@H](NS(=O)(=O)C3CC3)CCCN12` (stereo in doubt) [Compound 97] gave a pEC50 of 6.00 to 8.00.
With `CC(C)S(=O)(=O)N[C@H]1CCN2C(=O)COc3ncccc3[C@H]3CC[C@H](CC3)OC[C@@H]12` (stereo in doubt) [Compound 101] the figure was more than 8.00; with `O=C1COc2ccccc2[C@H]2CC[C@H](CC2)OC[C@H]2[C@@H](NS(=O)(=O)C3CC3)CCN12` (stereo in doubt) [Compound 105], more than 8.00; with `CC(C)S(=O)(=O)N[C@H]1CCN2C(=O)COc3ccccc3[C@H]3CC[C@H](CC3)OC[C@@H]12` (stereo in doubt) [Compound 106], more than 8.00.
For `O=C1COc2ncccc2[C@H]2CC[C@H](CC2)OC[C@H]2[C@@H](NS(=O)(=O)C3CC3)CCN12` (stereo in doubt) [Compound 107], the pEC50 is more than 8.00.
`O=C1COc2ncccc2[C@H]2CC[C@H](CC2)OCC2[C@@H](NS(=O)(=O)C(F)(F)F)CCN12` (stereo in doubt) [Compound 108] had a negative-log EC50 (pEC50) of more than 8.00.
On to `Cc1ccnc2c1[C@H]1CC[C@H](CC1)OC[C@H]1[C@@H](NS(=O)(=O)C3COC3)CCN1C(=O)CO2` (stereo in doubt) [Compound 109], for which the pEC50 is more than 8.00.
The compound `O=C1COc2ccccc2[C@H]2CC[C@H](CC2)OC[C@H]2[C@@H](NS(=O)(=O)C3COC3)CCN12` (stereo in doubt) [Compound 110] showed a pEC50 of more than 8.00.
To `C[C@H]1C[C@H](NS(C)(=O)=O)C2CO[C@H]3CC[C@H](CC3)c3ccccc3OCC(=O)N21` (stereo in doubt) [Compound 111] belongs 6.00 to 8.00.

A word on the pEC50: it is the negative decadic logarithm of the EC50, by convention in mol/L.
